{
  "source": "patent US20220323468A1",
  "about": "“REDUCED NICOTINAMIDERIBOSIDES FOR THE TREATMENT/PREVENTION OF LIVER DISEASE” (SOCIETE DES PRODUITS NESTLE S.A., priority 2019, published 2022)",
  "key": {"AML12 hepatocytes": {"system": "AML12 hepatocytes", "test": "Intracellular NAD+ levels in AML12 hepatocytes (dose-response and time course)", "assay_type": "cell-based", "procedure": "Even at such relatively low dose, NRH achieved similar increases in intracellular NAD+ levels to those reached with NR at 50-fold higher concentrations. NRH achieved maximal effects on NAD+ synthesis around the millimolar range, managing to increase intracellular NAD+ levels by more than 10-fold.\nNRH actions were also extremely fast (FIG. 3), as significant increases in NAD+ levels were observed within 5 minutes after NRH treatment."}, "C2C12 myotubes": {"system": "C2C12 myotubes", "test": "NAD+ levels in C2C12 myotubes after NRH treatment", "assay_type": "cell-based"}, "INS1-cells": {"system": "INS1-cells", "test": "NAD+ levels in INS1-cells after NRH treatment", "assay_type": "cell-based"}, "3T3 fibroblasts": {"system": "3T3 fibroblasts", "test": "NAD+ levels in 3T3 fibroblasts after NRH treatment", "assay_type": "cell-based"}, "[1]": {"system": "intracellular NRH, NMNH, NR and NMN", "test": "Intracellular NAD+ related metabolites after treatment (UHPLC-MS)", "assay_type": "cell-based", "description": "Levels of NRH and other NAD-related metabolites in biological samples were obtained by using a cold liquid-liquid extraction using a mixture of methanol:water:chloroform in 5:3:5 (v/v), from which the polar phase was recovered for hydrophilic interaction ultra-high performance liquid chromatography mass spectrometry (UHPLC-MS) analysis. The UHPLC consisted of a binary pump, a cooled autosampler, and a column oven (DIONEX Ultimate 3000 UHPLC+ Focused, Thermo Scientific), connected to a triple quadrupole spectrometer (TSQ Vantage, Thermo Scientific) equipped with a heated electrospray ionisation (H-ESI) source. Of each sample, 2 μL were injected into the analytical column (2.1 mm×150 mm, 5 μm pore size, 200 Å HILICON iHILIC®-Fusion(P)), guarded by a pre-column (2.1 mm×20 mm, 200 Å HILICON iHILIC®-Fusion(P) Guard Kit) operating at 35° C. The mobile phase (10 mM ammonium acetate at pH 9, A, and acetonitrile, B) was pumped at 0.25 mL/min flow rate over a linear gradient of decreasing organic solvent (0.5-16 min, 90-25% B), followed by re-equilibration for a total run time of 30 min. The MS operated in positive mode at 3500 V with multiple reaction monitoring (MRM). The software Xcalibur v4.1.31.9 (Thermo Scientific) was used for instrument control, data acquisition and processing. Retention time and mass detection was confirmed by authentic standards. […]"}, "[2]": {"system": "equilibrative nucleoside transporters (ENTs)", "test": "NRH-induced NAD+ synthesis under ENT blockage", "assay_type": "cell-based", "settings": "in the presence of S-(4-nitrobenzyl)-6-thioinosine (NBTI)", "description": "In order to understand the exact path by which NRH synthesizes NAD+, we initially evaluated whether NRH, could be transported into the cell by equilibrative nucleoside transporters (ENTs)."}, "NAMPT": {"target": "T1, NAMPT (Mus musculus, UniProt Q99KQ4)", "T1 construct": "endogenous in cells", "T1 sequence (Q99KQ4 whole entry)": "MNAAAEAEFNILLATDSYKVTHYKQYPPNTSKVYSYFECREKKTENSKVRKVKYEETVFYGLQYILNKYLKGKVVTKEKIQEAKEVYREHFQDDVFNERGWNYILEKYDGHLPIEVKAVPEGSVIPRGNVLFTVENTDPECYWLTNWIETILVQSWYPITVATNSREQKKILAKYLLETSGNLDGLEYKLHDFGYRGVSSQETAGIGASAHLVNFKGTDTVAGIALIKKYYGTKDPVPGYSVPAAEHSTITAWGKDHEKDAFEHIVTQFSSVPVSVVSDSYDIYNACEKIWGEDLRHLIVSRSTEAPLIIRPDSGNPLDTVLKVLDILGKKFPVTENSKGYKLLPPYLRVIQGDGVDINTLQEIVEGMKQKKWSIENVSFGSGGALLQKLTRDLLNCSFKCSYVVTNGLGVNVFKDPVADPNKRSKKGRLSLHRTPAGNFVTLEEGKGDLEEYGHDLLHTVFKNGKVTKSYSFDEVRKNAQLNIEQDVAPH", "test": "NRH-induced NAD+ synthesis with NAMPT inhibitor FK866", "assay_type": "cell-based", "settings": "experiments using FK866, a NAMPT inhibitor", "description": "(§1) The action of NRH was also NAMPT-independent, based on experiments using FK866, a NAMPT inhibitor. If NRH led to NAD+ synthesis via the formation of NMNH, this hypothetical path would require the phosphorylation of NRH into NMNH. Given the essential and rate-limiting role of NRK1 in NR phosphorylation, we wondered whether the ability of NRH to boost NAD+ levels was NRK1 dependent. To answer this question, we evaluated NRH action in primary hepatocytes from either control or NRK1 knockout (NRK1KO) mice. […] Further, they rule out the possibility that NRH-induced NAD+ […] is driven by NRH oxidation into NR."}, "[3]": {"system": "primary hepatocytes from NRK1 knockout (NRK1KO) mice", "test": "NAD+ levels in primary hepatocytes from control or NRK1 knockout mice", "assay_type": "cell-based", "settings": "after 1 hour of treatment", "description": "as §1"}, "adenosine kinase (AK)": {"target": "T2, adenosine kinase (AK) (Mus musculus, UniProt P55264)", "T2 construct": "endogenous in cells; host or cells: AML12 cells", "T2 sequence (P55264 whole entry)": "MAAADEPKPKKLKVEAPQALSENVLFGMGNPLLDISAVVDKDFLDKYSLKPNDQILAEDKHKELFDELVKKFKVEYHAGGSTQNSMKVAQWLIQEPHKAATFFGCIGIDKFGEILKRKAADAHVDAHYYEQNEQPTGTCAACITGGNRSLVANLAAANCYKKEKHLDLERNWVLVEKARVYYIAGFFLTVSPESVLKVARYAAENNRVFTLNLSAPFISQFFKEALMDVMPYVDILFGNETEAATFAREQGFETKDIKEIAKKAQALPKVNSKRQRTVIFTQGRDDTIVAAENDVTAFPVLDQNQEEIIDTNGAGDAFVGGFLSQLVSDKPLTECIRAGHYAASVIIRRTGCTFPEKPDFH", "test": "NRH-induced NAD+ synthesis with adenosine kinase inhibitors", "assay_type": "cell-based", "settings": "metabolomic analyses, upon inhibition of AK", "procedure": "AML12 cells were treated with an adenosine kinase inhibitor (5-IT; […]) for 1 hour prior to NRH treatment at the doses indicated. Then, 1 hour later, acidic extracts were obtained to measure NAD^+ levels."}, "[4]": {"test": "Stability in isolated mouse plasma", "assay_type": "in vitro ADME", "description": "(§2) NR degradation to NAM has been proposed as a limitation for its pharmacological efficacy. To evaluate whether NRH was also susceptible to degradation to NAM, we spiked NRH or NR in isolated mouse plasma. […] We also tested the stability of NRH in other matrixes."}, "[5]": {"test": "Stability in FBS supplemented media", "description": "as §2"}, "Stability in water": {"test": "Stability in water", "assay_type": "physicochemical", "settings": "pH=7, at room temperature, 48 h", "description": "as §2"}, "[6]": {"test": "Tissue NAD+ levels after IP injection in mice", "assay_type": "in vivo", "settings": "IP 500 mg/kg, after 1 h", "procedure": "(§3) The above results prompted us to test whether NRH could act as an effective NAD+ precursor in vivo. For this, we first intraperitoneally (IP) injected mice with either NR or NRH (500 mg/kg)."}, "[7]": {"test": "Circulating NAM, NRH and NR after IP injection in mice", "assay_type": "in vivo", "description": "(§4) Levels of NRH and other NAD-related metabolites in biological samples were obtained by using a cold liquid-liquid extraction using a mixture of methanol:water:chloroform in 5:3:5 (v/v), from which the polar phase was recovered for hydrophilic interaction ultra-high performance liquid chromatography mass spectrometry (UHPLC-MS) analysis. The UHPLC consisted of a binary pump, a cooled autosampler, and a column oven (DIONEX Ultimate 3000 UHPLC+ Focused, Thermo Scientific), connected to a triple quadrupole spectrometer (TSQ Vantage, Thermo Scientific) equipped with a heated electrospray ionisation (H-ESI) source. Of each sample, 2 μL were injected into the analytical column (2.1 mm×150 mm, 5 μm pore size, 200 Å HILICON iHILIC®-Fusion(P)), guarded by a pre-column (2.1 mm×20 mm, 200 Å HILICON iHILIC®-Fusion(P) Guard Kit) operating at 35° C. The mobile phase (10 mM ammonium acetate at pH 9, A, and acetonitrile, B) was pumped at 0.25 mL/min flow rate over a linear gradient of decreasing organic solvent (0.5-16 min, 90-25% B), followed by re-equilibration for a total run time of 30 min. The MS operated in positive mode at 3500 V with multiple reaction monitoring (MRM). The software Xcalibur v4.1.31.9 (Thermo Scientific) was used for instrument control, data acquisition and processing. Retention time and mass detection was confirmed by authentic standards.\nas §3"}, "[8]": {"test": "Hepatic NAD+ levels after oral administration in mice", "assay_type": "in vivo", "settings": "compared with NR", "procedure": "(§5) 8 week-old C57BI/6NTac mice were orally gavaged with either saline (as vehicle), NR (500 mg/kg) or NRH (500 mg/kg). After 1 hour, liver, skeletal muscle and kidney NAD^+ levels were evaluated. All results are expressed as mean+/− SEM of n=5 mice per group. * indicates statistical difference at p<0.05 vs. vs. saline-treated mice. # indicates statistical difference at p<0.05 vs. NR treated mice.\n(§6) Oral administration of NRH led to very similar results to those observed after IP administration. […] NRH was detectable in plasma 1 h after oral administration. In contrast, NR levels were undetectable at 1 h after NR administration."}, "[9]": {"test": "Plasma NRH, NR and NAM after oral administration in mice", "assay_type": "in vivo", "procedure": "as §5, §4, §6"}, "[10]": {"parameters": "species or system mice", "settings": "mouse, in vivo, 250 mg/kg", "procedure": "8 week-old C57Bl/6NTac mice were orally gavaged with either saline (as vehicle), and NRH (250 mg/kg). After 2 hours, liver, skeletal muscle and kidney NRH levels were evaluated. All results are expressed as mean+/− SEM of n=4 mice per group, as areas under the signal by LC-MS analysis, corrected by total protein amount of tissue.\nas §4"}, "[11]": {"test": "Intrahepatic and hepatic mitochondrial NAD+ after IP injection in mice", "assay_type": "in vivo", "settings": "NR 500 mg/kg or equimolar amounts, 1 hour later", "procedure": "10 week old male mice were fasted for 2 hours prior to intraperitoneal injection (IP) with saline as control/vehicle, nicotinamide riboside (NR; 500 mg/kg) or equimolar amounts of dihydronicotinamide riboside (NRH) or nicotinamide (NAM). Then, 1 hour later, mice were euthanized and a piece of liver was snap frozen while another piece was used for mitochondrial isolation following a published procedure (Frezza et al., 2007; Nature Protocols). The piece of snap frozen liver was weighted and submitted to acidic extraction to evaluate NAD+ levels through enzymatic methods. For isolated mitochondria, protein was quantified and 200 micrograms of protein were used for acidic extraction and NAD+ measurement through enzymatic methods. […] All results are mean+/− SEM of n=4 animals per group. * indicates statistical difference at p<0.05 vs. control/vehicle group."}, "[12]": {"settings": "spiked in isolated mouse plasma, 2 h of incubation"}},
  "note": "Entries after “also recorded” stand apart in the source; their conditions may differ.",
  "data": [
    {"smiles": "NC(=O)C1=CN([C@@H]2O[C@H](CO)[C@@H](O)[C@H]2O)C=CC1", "note": "[NRH]", "values": [
      {"measurement": "time to significant increase in NAD+ levels after treatment", "setting": "AML12 hepatocytes; AML12 hepatocytes, FIG. 3", "result": "≤ 5", "unit": "min"},
      {"measurement": "ability to increase intracellular NAD+", "setting": "AML12 hepatocytes; AML12 hepatocytes, compared with NR", "result": "superior to that of NR"},
      {"measurement": "concentration at which NAD+ levels are significantly increased", "setting": "AML12 hepatocytes; AML12 hepatocytes, dose-response, FIG. 2", "result": 10, "unit": "µM"},
      {"measurement": "fold higher NR concentration needed to reach similar increases in intracellular NAD+", "setting": "AML12 hepatocytes; NRH at 10 μM versus NR", "result": 50, "unit": "fold"},
      {"measurement": "maximal increase of intracellular NAD+ levels", "setting": "AML12 hepatocytes; around the millimolar range", "result": "more than 10 fold"},
      {"measurement": "NAD+ levels", "setting": "C2C12 myotubes", "result": "highly elevated"},
      {"measurement": "NAD+ levels", "setting": "INS1-cells", "result": "highly elevated"},
      {"measurement": "NAD+ levels", "setting": "3T3 fibroblasts", "result": "highly elevated"},
      {"measurement": "intracellular detection of NRH and NMNH", "setting": "[1]; 5 minutes after treatment", "result": "could be detected intracellularly"},
      {"measurement": "intracellular NR and NMN", "setting": "[1]; after treatment, compared with NR", "result": "increase in intracellular NR and NMN, greater than that triggered by NR itself"},
      {"measurement": "capacity as extracellular NAD+ precursor under ENT blockage", "setting": "[2]", "result": "largely lost its capacity as an extracellular NAD+ precursor"},
      {"measurement": "dependence of NAD+ increasing action on NAMPT", "setting": "NAMPT", "result": "NAMPT-independent"},
      {"measurement": "NAD+ levels in NRK1KO derived primary hepatocytes", "setting": "[3]", "result": "not affected by NRK1 deficiency"},
      {"measurement": "generation of NMNH, NADH and NAD+ from NRH", "setting": "adenosine kinase (AK)", "result": "fully blunted"},
      {"measurement": "NR production in plasma", "setting": "[4]; incubation in isolated plasma", "result": "did not lead to NR production"},
      {"measurement": "compound levels in plasma", "setting": "[4]; [12]", "result": "remained stable"},
      {"measurement": "generation of NAM in plasma", "setting": "[4]; [12]", "result": "NAM was not generated; also recorded: did not significantly alter NAM levels"},
      {"measurement": "degradation to NAM", "setting": "[5]", "result": "did not degrade to NAM"},
      {"measurement": "stability in water", "setting": "Stability in water", "result": "certified NRH stability"},
      {"measurement": "NAD+ levels in kidney", "setting": "[6]", "result": "increased NAD+ levels"},
      {"measurement": "NAD+ levels in liver", "setting": "[6]", "result": "increased NAD+ levels"},
      {"measurement": "NAD+ levels in muscle", "setting": "[6]", "result": "increased NAD+ levels"},
      {"measurement": "NAM levels in circulation", "setting": "[7]; mice, IP 500 mg/kg", "result": "only a very mild increase"},
      {"measurement": "NR in circulation", "setting": "[7]; mouse, in vivo, ip", "result": "much higher levels than those detected after NR injection itself"},
      {"measurement": "NRH in circulation", "setting": "[7]; mouse, in vivo, ip", "result": "detectable in circulation"},
      {"measurement": "effect on hepatic NAD+ levels", "setting": "[8]", "result": "more potent effect on hepatic NAD+ levels than NR"},
      {"measurement": "NRH concentration in plasma", "setting": "[9]; mice, after oral gavage", "result": "11.16 ± 1.74", "unit": "µM"},
      {"measurement": "administered compound in plasma", "setting": "[9]; mouse, in vivo, po", "result": "detectable"},
      {"measurement": "NRH in kidney", "setting": "[10]", "result": "found intact, in high levels"},
      {"measurement": "NRH in liver", "setting": "[10]", "result": "found intact, in high levels"},
      {"measurement": "NRH in muscle", "setting": "[10]", "result": "found intact, in high levels"},
      {"measurement": "intrahepatic NAD+", "setting": "[11]", "result": "increase intrahepatic NAD+"},
      {"measurement": "hepatic mitochondrial NAD+ levels", "setting": "[11]; isolated liver mitochondria", "result": "only NRH increases mitochondrial NAD+ levels"}
    ]}
  ]
}
